Measured values from PMC11396318, “Lupeol-3-carbamate Derivatives: Synthesis and Biological Evaluation as Potential Antitumor Agents” (Molecules, 2024).
Where two headings read alike, the source gives them in different places.

How the values were obtained:
[1] = test system: human breast cancer cell line MCF-7; assay: MTT anti-proliferative assay, MCF-7; format: cell-based; conditions: read-out: IC50 (μM) MCF-7
From the text: (§1) The anti-proliferative activities of 3a–k against human lung cancer cell line (A549), human hepatoma cell line (HepG2), and human breast cancer cell line (MCF-7) were examined. With lupeol and cisplatin as positive controls, the MTT assay was used to evaluate the anti-proliferative activity of all of the synthesized compounds in vitro.
(§2) The MTT (Beyotime, Shanghai, China) colorimetric method was used to test the antitumor activity of the synthetic products. The test compound and the control compound were prepared into the liquid with a concentration of 1, 5, 10, 20, and 40 μmol/L, respectively. The tested tumor cells (A549, HepG2, MCF-7) (Chinese Academy of Sciences, Shanghai, China) were inoculated into 96 well plates with a density of 2 × 10^4 cells/mL, and 90 μL PBS was injected into each well. The 96 well plates were cultured overnight in an incubator, and each well was injected with the same concentration of 10 μL of the test compound. After 48 h, 10 μL of MTT solution was injected into each well. After culture for 4 h, the plates were turned upside down and 100 μL DMSO (Kermel, Tianjin, China) was added. The optical density (OD) values of the compound and the control product were determined at 490 nm wavelength with enzyme-labeled apparatus.

[2] = test system: human liver cancer cell line HepG2; assay: MTT anti-proliferative assay, HepG2; format: cell-based; conditions: for IC50: read-out: IC50 (μM) HepG2
From the text: as §1, §2

[3] = test system: human lung cancer cell line A549; assay: MTT anti-proliferative assay, A549; format: cell-based; conditions: read-out: IC50 (μM) A549
From the text: as §1, §2

A549, HepG2, MCF-7 = assay: MTT anti-proliferative assay, stated for all three tumor cell lines together; format: cell-based, human; conditions: for anti-proliferative activity compared with lupeol: three tested cell lines; for IC50: Homo sapiens, 48 h, A549, HepG2 and MCF-7, 48 h, span or bound over the three lines, read-out: IC50 against all three tumor cell lines
From the text: as §1, §2

[4] = test system: PI3K/AKT/mTOR pathway in HepG2 cells; assay: Western blotting of PI3K/AKT/mTOR-related proteins; format: cell-based, human; conditions: HepG2, 2, 4 and 8 μmol/L, 48 h, relative to control
Experimental: In order to better comprehend the effect of compound 3k·CH3I on the expression of proteins related to the mitochondrial apoptosis pathway, HepG2 cells were treated with 3k·CH3I at different concentrations (0, 2, 4, and 8 μmol/L), and Western blotting was used to determine the expression of related proteins, as shown in Figure 9.
HepG2 cells with logarithmic growth stage were selected to make a single-cell suspension and inoculated into a culture bottle with a cell density of 1 × 10^6 cells/mL. The cells were treated with different concentrations of compound 3k·CH3I (0, 2, 4 and 8 μmol/L) and cultured for 48 h. A mixture of 500 μL of phenylmethylsulfonyl fluoride (PMSF) and radio immunoprecipitation assay (RIPA) lysate was added to each well, and the protein content was determined using the bicinchoninic acid (BCA) assay and denatured at high temperature 30 min later. The protein samples were separated by polyacrylamide gel electrophoresis (SDS-PAGE) and transferred to a polyvinylidene fluoride (PVDF) membrane. The membrane was enclosed in 5% skim milk for 2 h, then specific antibodies of different proteins were added, incubated at 4 °C overnight, and secondary antibodies were added for 2 h. Finally, the gel imager was used for detection. […] The gray-scale of the bands was analyzed by gel imaging image analysis software and the relative protein content was calculated.

HepG2 cells [5] = assay: Mitochondrial membrane potential depolarization, JC-1; format: cell-based, human; conditions: 48 h; for MMP depolarization: JC-1 flow cytometry, control 7.74%
From the text: In order to explore the effect of compound 3k·CH3I on MMP, a JC-1 staining kit was used to detect the depolarization of the MMP of human hepatocellular carcinoma HepG2 cells treated with compound 3k·CH3I, as shown in Figure 8.
Flow cytometry was used to detect the intimal potential of HepG2 cells. […] It was concluded that the apoptosis of HepG2 cells was induced by compound 3k·CH3I and was associated with the mitochondrial-mediated endogenous pathway.
HepG2 cells with logarithmic growth stage were selected and inoculated into a designated confocal six-well plate with 2 mL cell suspension per well (1 × 10^6 cells/mL) and cultured in a sterile incubator for 24 h. The cells were treated with different concentrations of 3k·CH3I (0, 2, 4, 8 μmol/L) and continued to be cultured for 48 h. PBS cleans the cells, 0.25% trypsin digests the cells, and collects the cells. After the drug action time was over, 1 mL of pre-configured JC-1 staining solution was added and incubated for 30 min. After JC-1 incubation, the cells were observed by fluorescence microscope, the supernatant was separated, and the PBS cell suspension was taken and the experimental results were determined by flow cytometry.

HepG2 cells [6] = assay: Annexin V/PI apoptosis by flow cytometry; format: cell-based, human; conditions: 48 h, control 3.03%
Experimental: HepG2 cells with logarithmic growth stage were selected and inoculated into a designated confocal six-well plate with 2 mL cell suspension per well (1 × 10^6 cells/mL) and cultured in a sterile incubator for 24 h. […] The cellular preparations were initially rinsed with phosphate-buffered saline (PBS), followed by enzymatic detachment using a 0.25% trypsin solution. Post-collection, the cells underwent centrifugation at 800 revolutions per minute (rpm) for a duration of 5 min to pelletize. The resulting cell pellet was subsequently re-suspended in 1 mL of culture medium designed for cell propagation. The 100 µL cell suspension was transferred into a flow detection tube, with 5 µL AnnexinV added, cultured at room temperature away from light for 15 min, and centrifuged at 800 revolutions per minute (rpm) for a period of 5 min, after which the supernatant containing the staining solution was aspirated. Then, 100 µL of binding buffer for re-suspension and 5 µL of PI dye were added and the solution was mixed well and incubated at low temperature, avoiding light for 15 min. The results were measured by flow cytometry.

HepG2 cells [7] = assay: Intracellular ROS, DCFH-DA, flow cytometry; format: cell-based, human; conditions: HepG2, 2, 4 and 8 μmol/L, 48 h, compared with the control group
Experimental: Flow cytometry was additionally used to determine the effect of compound 3k·CH3I on ROS levels in HepG2 cells.
HepG2 cells were inoculated into a six-well plate with 2 mL cell suspension per well at a concentration of 1 × 10^6 cells/mL overnight in an incubation chamber maintained at 37 °C with a 5% CO2 atmosphere. The cells were treated with different concentrations of compound 3k·CH3I (0, 2, 4 and 8 μmol/L) and continued to be cultured for 48 h. The cells underwent a PBS rinse to cleanse them, subsequent digestion with a 0.25% trypsin solution to facilitate detachment, and subsequent centrifugation at 800 revolutions per minute (rpm) for 5 min to sediment the cells. The ensuing cell pellet was then re-suspended in 1 mL of nutrient-rich cell culture medium for further experimental procedures. Then, 5 μmol/L DCFH-DA solution was added to each well and they were incubated for 30 min away from light. After incubation, the cells were digested, the supernatant was centrifuged, and the PBS cell suspension was taken and placed in a flow cytometry to determine the experimental results.

HepG2 cells [8] = assay: AO/EB double staining, cell morphology; format: cell-based, human; conditions: HepG2, 48 h, 2, 4 and 8 μmol/L
Experimental: The apoptotic morphological alterations induced by compound 3k·CH3I in HepG2 cells were scrutinized after a 48-h treatment using the acridine orange/ethidium bromide (AO/EB) double staining method, as depicted in Figure 6.
In this study, human hepatoma HepG2 cells were treated with compound 3k·CH3I, and the tested cells were stained by the AO/EB double staining (KeyGEN BioTECH, Nanjing, China) method to observe the morphological changes of the cells. HepG2 cells of logarithmic growth stage were inoculated into confocal six-well plates, and a volume of 2 mL of the cell suspension, adjusted to a concentration of 1 × 10^6 cells per milliliter, was introduced into each well. The cells were cultured in an aseptic constant temperature incubator for 24 h, and 3k·CH3I solution with concentrations of 0, 2, 4, and 8 μmol/L was added successively, and the culture continued for 48 h. The cellular specimens were rinsed with phosphate-buffered saline (PBS) on two occasions, after which 500 µL of staining buffer was introduced to the preparation, followed by storage in a light-protected environment for subsequent analysis. AO (5 µL) and EB (5 µL) staining solutions were added to the six-well plates successively, mixed and incubated at 4 °C for 20 min under light protection, then PBS was added and observed under a fluorescence microscope.

[9] = Homo sapiens, MCF7, MTT assay, 48 h of treatment, three independent experiments
[10] = Homo sapiens, HepG2, MTT assay, 48 h of treatment, three independent experiments
[11] = Homo sapiens, A549, MTT assay, 48 h of treatment, three independent experiments
[12] = MTT assay, 48 h of treatment, three independent experiments

SMILES: C=C(C)[C@@H]1CC[C@]2(C)CC[C@]3(C)C(CCC4[C@@]5(C)CC[C@H](OC(=O)N6CCN(C)CC6)C(C)(C)C5CC[C@]43C)C12 (stereo partly shown) [Compound 3i, Lupeol-3-((4-methylpiperazine)-1-carboxylate)]
- IC50 [1, 9]: 8.2 ± 1.46 µM
- IC50 [2, 10]: 9.43 ± 1.21 µM
- IC50 [3, 11]: 5.74 ± 0.83 µM

SMILES: C=C(C)[C@@H]1CC[C@]2(C)CC[C@]3(C)C(CCC4[C@@]5(C)CC[C@H](OC(=O)N(CC)CC)C(C)(C)C5CC[C@]43C)C12 (stereo partly shown) [Compound 3b, Lupeol-3-(diethyl) Carbamate]
- IC50 ([1]; Homo sapiens, MCF7, 48 h): 12.7 ± 1.43 µM
- IC50 ([2]; Homo sapiens, HepG2, 48 h): 13.8 ± 1.23 µM
- IC50 ([3]; Homo sapiens, A549, 48 h): 14 ± 1.25 µM

SMILES: C=C(C)[C@@H]1CC[C@]2(C)CC[C@]3(C)C(CCC4[C@@]5(C)CC[C@H](OC(=O)N(CCC)CCC)C(C)(C)C5CC[C@]43C)C12 (stereo partly shown) [Compound 3c, Lupeol-3-(dipropyl) Carbamate]
- IC50 [1, 9]: 15.3 ± 1.11 µM
- anti-proliferative activity compared with lupeol (A549, HepG2, MCF-7): more potent than that of lupeol
- IC50 [2, 10]: 5.39 ± 0.77 µM
- IC50 [3, 11]: 15.5 ± 1.2 µM

SMILES: C=C(C)[C@@H]1CC[C@]2(C)CC[C@]3(C)C(CCC4[C@@]5(C)CC[C@H](OC(=O)N6CCNCC6)C(C)(C)C5CC[C@]43C)C12 (stereo partly shown) [Compound 3h, Lupeol-3-(piperazine-1-carboxylate)]
- IC50 [1, 9]: 9.78 ± 1.2 µM
- IC50 (A549, HepG2, MCF-7): < 20 µM
- IC50 [2, 10]: 11.2 ± 1.45 µM
- IC50 [3, 11]: 12 ± 1.47 µM

SMILES: C=C(C)[C@@H]1CC[C@]2(C)CC[C@]3(C)C(CCC4[C@@]5(C)CC[C@H](OC(=O)N6CCSCC6)C(C)(C)C5CC[C@]43C)C12 (stereo partly shown) [Compound 3g, Lupeol-3-(thiomorpholine-1-carboxylate)]
- IC50 [1, 9]: 7.77 ± 1.09 µM
- IC50 [2, 10]: 10.1 ± 1.78 µM
- IC50 [3, 11]: 8.19 ± 1.02 µM

SMILES: C=C(C)[C@@H]1CC[C@]2(C)CC[C@]3(C)[C@H](CC[C@@H]4[C@@]5(C)CC[C@H](O)C(C)(C)[C@@H]5CC[C@]43C)[C@@H]12 [Lupeol]
- IC50 [1, 9]: 62 ± 1.79 µM
- IC50 [2, 10]: 43.6 ± 1.37 µM
- IC50 [3, 11]: 35.9 ± 1.58 µM

SMILES: C=C(C)C1CCC2(C)CCC3(C)C(CCC4C5(C)CCC(OC(=O)N6CCN(c7cc[n+](C)cc7)CC6)C(C)(C)C5CCC43C)C12 (stereo not shown) [Compound 3k·CH3I]
- expression of P-AKT, P-PI3K and P-mTOR [4]: downregulation
- expression of basal forms of AKT, PI3K and mTOR [4]: dose-dependent upregulation
- MMP depolarization (HepG2 cells [5]; HepG2, 2 μmol/L): 17.2%
- MMP depolarization (HepG2 cells [5]; HepG2, 4 μmol/L): 27.3%
- MMP depolarization (HepG2 cells [5]; HepG2, 8 μmol/L): 48.9%
- JC-1 fluorescence (microscopy) (HepG2 cells [5]; HepG2, different concentrations, compared with the control group): the red fluorescence gradually weakened until it eventually disappeared, and the green fluorescence gradually strengthened
- total percentage of apoptotic and necrotic cells (HepG2 cells [6]; HepG2, 4 μmol/L): 45.10%
- total percentage of apoptotic and necrotic cells (HepG2 cells [6]; HepG2, 8 μmol/L): 55.6%
- ROS levels (HepG2 cells [7]): increased significantly
- apoptotic morphological alterations (AO/EB staining) (HepG2 cells [8]): bright red fluorescence due to the chromatin concentration and nuclear fragmentation
- anti-proliferative activity compared with lupeol (A549, HepG2, MCF-7): more potent than that of lupeol
- activity on HepG2 relative to lupeol ([2]; HepG2, ratio of IC50): about 10 times
- IC50 [2, 10]: 3.13 µM

SMILES: N.N.[Cl][Pt][Cl] [Cisplatin, reference compound]
- IC50 [1, 12]: 5.27 ± 0.68 µM
- IC50 [2, 12]: 4.05 ± 0.45 µM
- IC50 [3, 12]: 4.65 ± 0.52 µM

SMILES: C=C(C)[C@@H]1CC[C@]2(C)CC[C@]3(C)C(CCC4[C@@]5(C)CC[C@H](OC(=O)N6CCOCC6)C(C)(C)C5CC[C@]43C)C12 (stereo partly shown) [Compound 3f, Lupeol-3-(morpholine-1-carboxylate)]
- IC50 [1, 9]: 11.3 ± 1.21 µM
- IC50 [2, 10]: 10.8 ± 1.52 µM
- IC50 [3, 11]: 6.76 ± 0.96 µM

SMILES: C=C(C)C1CCC2(C)CCC3(C)C(CCC4C5(C)CCC(OC(=O)N6CCN(c7ccncc7)CC6)C(C)(C)C5CCC43C)C12 (stereo not shown) [Compound 3k, Lupeol-3-((4-(pyridin-4-yl)piperazine)-1-carboxylate)]
- IC50 [1, 9]: 19.9 ± 1.82 µM
- IC50 (A549, HepG2, MCF-7): < 20 µM
- anti-proliferative activity compared with lupeol (A549, HepG2, MCF-7): more potent than that of lupeol
- IC50 [2, 10]: 14 ± 1.65 µM
- IC50 [3, 11]: 12.1 ± 1.35 µM

SMILES: C=C(C)[C@@H]1CC[C@]2(C)CC[C@]3(C)C(CCC4[C@@]5(C)CC[C@H](OC(=O)N6CCCCC6)C(C)(C)C5CC[C@]43C)C12 (stereo partly shown) [Compound 3e, Lupeol-3-(piperidine-1-carboxylate)]
- IC50 [1, 9]: 14 ± 1.58 µM
- IC50 (A549, HepG2, MCF-7): < 20 µM
- anti-proliferative activity compared with lupeol (A549, HepG2, MCF-7): more potent than that of lupeol
- IC50 [2, 10]: 6.91 ± 1.6 µM
- IC50 [3, 11]: 13.2 ± 1.56 µM

SMILES: C=C(C)[C@@H]1CC[C@]2(C)CC[C@]3(C)C(CCC4[C@@]5(C)CC[C@H](OC(=O)N6CCCC6)C(C)(C)C5CC[C@]43C)C12 (stereo partly shown) [Compound 3d, Lupeol-3-(pyrrolidine-1-carboxylate)]
- IC50 [1, 9]: 12.4 ± 1.55 µM
- IC50 [2, 10]: 17.7 ± 1.35 µM
- IC50 [3, 11]: 11.3 ± 1.14 µM

SMILES: C=C(C)[C@@H]1CC[C@]2(C)CC[C@]3(C)C(CCC4[C@@]5(C)CC[C@H](OC(=O)N(C)C)C(C)(C)C5CC[C@]43C)C12 (stereo partly shown) [Compound 3a, Lupeol-3-(dimethyl) Carbamate]
- IC50 ([1]; Homo sapiens, MCF7, 48 h): 10.2 ± 1.24 µM
- IC50 ([2]; Homo sapiens, HepG2, 48 h): 11.1 ± 1.45 µM
- IC50 ([3]; Homo sapiens, A549, 48 h): 14 ± 1.03 µM
